According to the supplement of paper PMC10307832:

Columns and labels:
Experiment in all cases: relative viability (nuclei count vs DMSO), 5 days (fraction); higher = more cells survive
HCC-44 = tested on: HCC-44
Outline: (§1)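 Five library-drug doses in √10 steps were combined with a fixed anchor-drug dose, or a single drug was given alone, by pin tool to lung cancer cell lines in 1536-well plates the day after seeding. Nuclei were stained and counted after 5 days. Relative viability is the nuclei count in treated wells over that in vehicle wells, taken as the median of duplicate plates.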

NCI-H358 = tested on: NCI-H358
Outline: as §1

NCI-H1975 = tested on: NCI-H1975
Outline: as §1

NCI-H1437 = tested on: NCI-H1437
Outline: as §1

NCI-H596 = tested on: NCI-H596
Outline: as §1

LK-2 = tested on: LK-2
Outline: as §1

201T = tested on: 201T
Outline: as §1

NCI-H1792 = tested on: NCI-H1792
Outline: as §1

SW 900 = tested on: SW 900
Outline: as §1

EKVX = tested on: EKVX
Outline: as §1

NCI-H838 = tested on: NCI-H838
Outline: as §1

BEN = tested on: BEN
Outline: as §1

HCC-15 = tested on: HCC-15
Outline: as §1

NCI-H441 = tested on: NCI-H441
Outline: as §1

A-427 = tested on: A-427
Outline: as §1

NCI-H23 = tested on: NCI-H23
Outline: as §1

HARA = tested on: HARA
Outline: as §1

NCI-H1666 = tested on: NCI-H1666
Outline: as §1

SK-MES-1 = tested on: SK-MES-1
Outline: as §1

COR-L 105 = tested on: COR-L 105
Outline: as §1

HCC-827 = tested on: HCC-827
Outline: as §1

NCI-H650 = tested on: NCI-H650
Outline: as §1

COR-L23 = tested on: COR-L23
Outline: as §1

Compound `NC(=O)Nc1cc(-c2cccc(F)c2)sc1C(=O)N[C@H]1CCCNC1` [AZD7762] + CC(=O)Nc1cccc(-n2c(=O)n(C3CC3)c(=O)c3c(Nc4ccc(I)cc4F)n(C)c(=O)c(C)c32)c1 [Trametinib] (partner 0.02 µM) has a relative viability (HCC-44; first compound 0.01 µM) of 1.13, a relative viability (HCC-44; first compound 0.03162 µM) of 1.04 and a relative viability (HCC-44; first compound 0.1 µM) of 1.12. For the same compound, the relative viability (HCC-44; first compound 0.3162 µM) was 1.15, the relative viability (HCC-44; first compound 1 µM) was 1.16 and the relative viability (NCI-H358; first compound 0.01 µM) was 0.136. It also gave a relative viability (NCI-H358; first compound 0.03162 µM) of 0.135, a relative viability (NCI-H358; first compound 0.1 µM) of 0.148 and a relative viability (NCI-H358; first compound 0.3162 µM) of 0.145. It also gave a relative viability (NCI-H358; first compound 1 µM) of 0.1, a relative viability (NCI-H1975; first compound 0.01 µM) of 0.341 and a relative viability (NCI-H1975; first compound 0.03162 µM) of 0.377. It also gave a relative viability (NCI-H1975; first compound 0.1 µM) of 0.331, a relative viability (NCI-H1975; first compound 0.3162 µM) of 0.345 and a relative viability (NCI-H1975; first compound 1 µM) of 0.24. It also gave a relative viability (NCI-H1437; first compound 0.01 µM) of 0.561, a relative viability (NCI-H1437; first compound 0.03162 µM) of 0.53 and a relative viability (NCI-H1437; first compound 0.1 µM) of 0.549. For the same compound, the relative viability (NCI-H1437; first compound 0.3162 µM) was 0.662, the relative viability (NCI-H1437; first compound 1 µM) was 0.494 and the relative viability (NCI-H596; first compound 0.01 µM) was 0.931. For the same compound, the relative viability (NCI-H596; first compound 0.03162 µM) was 0.8, the relative viability (NCI-H596; first compound 0.1 µM) was 0.923 and the relative viability (NCI-H596; first compound 0.3162 µM) was 0.803. For the same compound, the relative viability (NCI-H596; first compound 1 µM) was 0.626, the relative viability (LK-2; first compound 0.01 µM) was 0.794 and the relative viability (LK-2; first compound 0.03162 µM) was 0.552. The relative viability (LK-2; first compound 0.1 µM) was 0.845, the relative viability (LK-2; first compound 0.3162 µM) was 0.617 and the relative viability (LK-2; first compound 1 µM) was 0.562. The relative viability (201T; first compound 0.01 µM) was 0.718, the relative viability (201T; first compound 0.03162 µM) was 0.749 and the relative viability (201T; first compound 0.1 µM) was 0.763. The relative viability (201T; first compound 0.3162 µM) was 0.724, the relative viability (201T; first compound 1 µM) was 0.852 and the relative viability (NCI-H1792; first compound 0.01 µM) was 0.406. The relative viability (NCI-H1792; first compound 0.03162 µM) was 0.355, the relative viability (NCI-H1792; first compound 0.1 µM) was 0.589 and the relative viability (NCI-H1792; first compound 0.3162 µM) was 0.411. The relative viability (NCI-H1792; first compound 1 µM) was 0.527, the relative viability (SW 900; first compound 0.01 µM) was 0.799 and the relative viability (SW 900; first compound 0.03162 µM) was 0.794. The relative viability (SW 900; first compound 0.1 µM) was 0.721, the relative viability (SW 900; first compound 0.3162 µM) was 0.862 and the relative viability (SW 900; first compound 1 µM) was 0.495. For the same compound, the relative viability (EKVX; first compound 0.01 µM) was 0.345, the relative viability (EKVX; first compound 0.03162 µM) was 0.502 and the relative viability (EKVX; first compound 0.1 µM) was 0.371. It also gave a relative viability (EKVX; first compound 0.3162 µM) of 0.314, a relative viability (EKVX; first compound 1 µM) of 0.279 and a relative viability (NCI-H838; first compound 0.01 µM) of 0.632. It also gave a relative viability (NCI-H838; first compound 0.03162 µM) of 0.513, a relative viability (NCI-H838; first compound 0.1 µM) of 0.483 and a relative viability (NCI-H838; first compound 0.3162 µM) of 0.537. It also gave a relative viability (NCI-H838; first compound 1 µM) of 0.305, a relative viability (BEN; first compound 0.01 µM) of 1.15 and a relative viability (BEN; first compound 0.03162 µM) of 1.11. For the same compound, the relative viability (BEN; first compound 0.1 µM) was 1.09, the relative viability (BEN; first compound 0.3162 µM) was 1.09 and the relative viability (BEN; first compound 1 µM) was 0.968. It also gave a relative viability (HCC-15; first compound 0.01 µM) of 0.407, a relative viability (HCC-15; first compound 0.03162 µM) of 0.393 and a relative viability (HCC-15; first compound 0.1 µM) of 0.413. For the same compound, the relative viability (HCC-15; first compound 0.3162 µM) was 0.351, the relative viability (HCC-15; first compound 1 µM) was 0.443 and the relative viability (NCI-H441; first compound 0.01 µM) was 0.511. The relative viability (NCI-H441; first compound 0.03162 µM) was 0.574, the relative viability (NCI-H441; first compound 0.1 µM) was 0.543 and the relative viability (NCI-H441; first compound 0.3162 µM) was 0.517. For the same compound, the relative viability (NCI-H441; first compound 1 µM) was 0.359, the relative viability (A-427; first compound 0.01 µM) was 0.82 and the relative viability (A-427; first compound 0.03162 µM) was 0.849. The relative viability (A-427; first compound 0.1 µM) was 0.772, the relative viability (A-427; first compound 0.3162 µM) was 0.655 and the relative viability (A-427; first compound 1 µM) was 0.331. It also gave a relative viability (NCI-H23; first compound 0.01 µM) of 0.477, a relative viability (NCI-H23; first compound 0.03162 µM) of 0.36 and a relative viability (NCI-H23; first compound 0.1 µM) of 0.421. It also gave a relative viability (NCI-H23; first compound 0.3162 µM) of 0.392, a relative viability (NCI-H23; first compound 1 µM) of 0.201 and a relative viability (HARA; first compound 0.01 µM) of 0.686. For the same compound, the relative viability (HARA; first compound 0.03162 µM) was 0.629, the relative viability (HARA; first compound 0.1 µM) was 0.868 and the relative viability (HARA; first compound 0.3162 µM) was 0.664. For the same compound, the relative viability (HARA; first compound 1 µM) was 0.295, the relative viability (NCI-H1666; first compound 0.01 µM) was 0.894 and the relative viability (NCI-H1666; first compound 0.03162 µM) was 0.898. For the same compound, the relative viability (NCI-H1666; first compound 0.1 µM) was 0.927, the relative viability (NCI-H1666; first compound 0.3162 µM) was 0.891 and the relative viability (NCI-H1666; first compound 1 µM) was 0.901. It also gave a relative viability (SK-MES-1; first compound 0.01 µM) of 0.543, a relative viability (SK-MES-1; first compound 0.03162 µM) of 0.535 and a relative viability (SK-MES-1; first compound 0.1 µM) of 0.559. It also gave a relative viability (SK-MES-1; first compound 0.3162 µM) of 0.347, a relative viability (SK-MES-1; first compound 1 µM) of 0.227 and a relative viability (COR-L 105; first compound 0.01 µM) of 0.435. It also gave a relative viability (COR-L 105; first compound 0.03162 µM) of 0.462, a relative viability (COR-L 105; first compound 0.1 µM) of 0.416 and a relative viability (COR-L 105; first compound 0.3162 µM) of 0.444. For the same compound, the relative viability (COR-L 105; first compound 1 µM) was 0.43, the relative viability (HCC-827; first compound 0.01 µM) was 0.577 and the relative viability (HCC-827; first compound 0.03162 µM) was 0.534. It also gave a relative viability (HCC-827; first compound 0.1 µM) of 0.561, a relative viability (HCC-827; first compound 0.3162 µM) of 0.575 and a relative viability (HCC-827; first compound 1 µM) of 0.376. For the same compound, the relative viability (NCI-H650; first compound 0.01 µM) was 0.984, the relative viability (NCI-H650; first compound 0.03162 µM) was 1.08 and the relative viability (NCI-H650; first compound 0.1 µM) was 1.05. For the same compound, the relative viability (NCI-H650; first compound 0.3162 µM) was 1.04, the relative viability (NCI-H650; first compound 1 µM) was 0.756 and the relative viability (COR-L23; first compound 0.01 µM) was 0.702. The relative viability (COR-L23; first compound 0.03162 µM) was 0.623, the relative viability (COR-L23; first compound 0.1 µM) was 0.518 and the relative viability (COR-L23; first compound 0.3162 µM) was 0.319. It also gave a relative viability (COR-L23; first compound 1 µM) of 0.119.
